IC50 data for 20 molecules are collected here from patent US20170369444A1, “INHIBITORS OF HISTONE DEMETHYLASES” (Gilead Sciences, Inc., priority 2014, published 2017).

By IC50 is commonly meant the midpoint of a concentration-inhibition curve.

A value given as a limit tells only on which side of the number the result lay.

Holding throughout (format): biochemical
The target in one assay is PHF8 (KDM7) (Homo sapiens, UniProt Q9UPP1). Description: Histone lysine demethylase AlphaLISA assay, PHF8. As to conditions: in vitro enzyme, read-out: PHF8 IC50 (HDME Inhibition). Here is the method: (§1) Histone lysine demethylase AlphaLISA assays are performed to determine IC50 values. […] Assays are performed analogously to the protocol described by PerkinElmer (Roy et al. PerkinElmer Technical Note: AlphaLISA #12, April 2011).
(§2) Assays are performed analogously to the protocol described by PerkinElmer (Roy et al. PerkinElmer Technical Note: AlphaLISA #12, April 2011).
(§3) Enzymes (final assay concentration 0.1-2.5 nM) are dissolved in enzyme buffer and incubated for 10 min before 5 μL is added to 5 μL 3% DMSO solutions of compounds in enzyme buffer, incubated for another 10 minutes, before 5 μL substrate solution is added and the reaction mixture is incubated at room temperature. 10 μL acceptor beads, suspended Epigenetic Buffer (Perkin Elmer AL008) from stock, are added and the suspension is incubated in the dark at room temperature, before 10 μL suspension of streptavidin donor beads (Perkin Elmer 6760002) in Epigenetic Buffer is added. After incubation at room temperature in the dark the plates are read.
(§4) Substrate solution: Substrate (final assay concentration 50-200 nM), 50 mM Hepes (pH 7.4-8.0), 0.003% Tween-20, 0.1% BS, 25 μM L-Asc, 10 μM α-KG. Enzyme Buffer: 50 mM Hepes (pH 7.4-8.0), 0.003% Tween-20, 0.1% BSA; 5 μM (NH4)2Fe(SO4)2

The next assay deals with T1, KDM6A (UTX) (Homo sapiens, UniProt O15550).
T1 construct: 919-1401; host or cells: E. coli
As to the kind of experiment: Histone lysine demethylase AlphaLISA assay, KDM6A. The note with it: in vitro enzyme, read-out: KDM6A IC50 (HDME Inhibition). Here is the method:
as §1, §2, §3, §4

The target of another assay is T2, KDM5B (PLU-1) (Homo sapiens, UniProt Q9UGL1).
T2 construct: 1-809; host or cells: E. coli
T2 sequence (Q9UGL1 1-809): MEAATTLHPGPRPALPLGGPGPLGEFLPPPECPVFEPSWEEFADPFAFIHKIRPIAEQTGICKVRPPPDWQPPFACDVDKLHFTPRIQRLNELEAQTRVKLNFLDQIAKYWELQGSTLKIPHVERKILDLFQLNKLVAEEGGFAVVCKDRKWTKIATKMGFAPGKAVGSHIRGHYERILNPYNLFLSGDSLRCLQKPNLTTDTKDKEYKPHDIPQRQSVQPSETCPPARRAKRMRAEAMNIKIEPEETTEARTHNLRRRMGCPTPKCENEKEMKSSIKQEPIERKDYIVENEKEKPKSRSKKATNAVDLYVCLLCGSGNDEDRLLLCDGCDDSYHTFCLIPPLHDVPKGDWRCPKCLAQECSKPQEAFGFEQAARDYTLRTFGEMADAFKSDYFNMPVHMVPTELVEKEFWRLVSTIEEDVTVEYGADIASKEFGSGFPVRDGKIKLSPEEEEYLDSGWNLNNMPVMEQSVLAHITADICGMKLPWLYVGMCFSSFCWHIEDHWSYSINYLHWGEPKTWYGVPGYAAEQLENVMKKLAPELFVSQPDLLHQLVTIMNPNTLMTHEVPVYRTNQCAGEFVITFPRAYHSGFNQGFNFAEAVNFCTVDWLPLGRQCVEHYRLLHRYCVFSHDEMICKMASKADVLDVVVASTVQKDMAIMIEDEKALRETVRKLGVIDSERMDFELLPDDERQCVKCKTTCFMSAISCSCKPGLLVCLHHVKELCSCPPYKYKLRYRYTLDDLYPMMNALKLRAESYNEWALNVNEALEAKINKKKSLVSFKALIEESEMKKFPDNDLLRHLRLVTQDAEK
Description: Histone lysine demethylase AlphaLISA assay, KDM5B. As to conditions: in vitro enzyme, read-out: KDM5B IC50 (HDME Inhibition). Here is the method:
as §1, §2, §3, §4
A general note: Bead proximity is the source of the signal in Alpha formats.

The next assay addresses T3, KDM2B (FBXL10) (Homo sapiens, UniProt Q8NHM5).
T3 construct: 1-650; purchased BPS Bioscience, US; host or cells: Bac (baculovirus/insect cells)
T3 sequence (Q8NHM5 1-650): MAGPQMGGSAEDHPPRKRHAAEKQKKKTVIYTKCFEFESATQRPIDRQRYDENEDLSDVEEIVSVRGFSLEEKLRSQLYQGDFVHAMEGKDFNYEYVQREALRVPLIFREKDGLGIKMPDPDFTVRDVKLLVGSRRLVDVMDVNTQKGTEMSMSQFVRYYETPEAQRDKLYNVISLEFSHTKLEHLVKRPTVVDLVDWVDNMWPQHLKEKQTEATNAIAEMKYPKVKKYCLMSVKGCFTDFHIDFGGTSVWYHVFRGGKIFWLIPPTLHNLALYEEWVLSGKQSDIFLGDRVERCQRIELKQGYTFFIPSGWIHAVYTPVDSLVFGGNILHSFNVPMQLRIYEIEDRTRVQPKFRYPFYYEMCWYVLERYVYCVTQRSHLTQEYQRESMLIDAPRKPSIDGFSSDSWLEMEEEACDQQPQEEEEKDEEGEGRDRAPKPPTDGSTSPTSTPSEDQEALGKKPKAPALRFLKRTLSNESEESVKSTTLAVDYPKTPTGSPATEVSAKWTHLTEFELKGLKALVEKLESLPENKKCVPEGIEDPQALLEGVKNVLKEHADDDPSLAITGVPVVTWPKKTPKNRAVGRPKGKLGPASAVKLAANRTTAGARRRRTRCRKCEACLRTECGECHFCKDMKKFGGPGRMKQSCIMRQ
As to the kind of experiment: Histone lysine demethylase AlphaLISA assay, KDM2B. The note with it: in vitro enzyme, read-out: KDM2B IC50 (HDME Inhibition). Here is the method:
as §1, §2, §3, §4

Chain of PHF8 (KDM7) (Q9UPP1 whole entry): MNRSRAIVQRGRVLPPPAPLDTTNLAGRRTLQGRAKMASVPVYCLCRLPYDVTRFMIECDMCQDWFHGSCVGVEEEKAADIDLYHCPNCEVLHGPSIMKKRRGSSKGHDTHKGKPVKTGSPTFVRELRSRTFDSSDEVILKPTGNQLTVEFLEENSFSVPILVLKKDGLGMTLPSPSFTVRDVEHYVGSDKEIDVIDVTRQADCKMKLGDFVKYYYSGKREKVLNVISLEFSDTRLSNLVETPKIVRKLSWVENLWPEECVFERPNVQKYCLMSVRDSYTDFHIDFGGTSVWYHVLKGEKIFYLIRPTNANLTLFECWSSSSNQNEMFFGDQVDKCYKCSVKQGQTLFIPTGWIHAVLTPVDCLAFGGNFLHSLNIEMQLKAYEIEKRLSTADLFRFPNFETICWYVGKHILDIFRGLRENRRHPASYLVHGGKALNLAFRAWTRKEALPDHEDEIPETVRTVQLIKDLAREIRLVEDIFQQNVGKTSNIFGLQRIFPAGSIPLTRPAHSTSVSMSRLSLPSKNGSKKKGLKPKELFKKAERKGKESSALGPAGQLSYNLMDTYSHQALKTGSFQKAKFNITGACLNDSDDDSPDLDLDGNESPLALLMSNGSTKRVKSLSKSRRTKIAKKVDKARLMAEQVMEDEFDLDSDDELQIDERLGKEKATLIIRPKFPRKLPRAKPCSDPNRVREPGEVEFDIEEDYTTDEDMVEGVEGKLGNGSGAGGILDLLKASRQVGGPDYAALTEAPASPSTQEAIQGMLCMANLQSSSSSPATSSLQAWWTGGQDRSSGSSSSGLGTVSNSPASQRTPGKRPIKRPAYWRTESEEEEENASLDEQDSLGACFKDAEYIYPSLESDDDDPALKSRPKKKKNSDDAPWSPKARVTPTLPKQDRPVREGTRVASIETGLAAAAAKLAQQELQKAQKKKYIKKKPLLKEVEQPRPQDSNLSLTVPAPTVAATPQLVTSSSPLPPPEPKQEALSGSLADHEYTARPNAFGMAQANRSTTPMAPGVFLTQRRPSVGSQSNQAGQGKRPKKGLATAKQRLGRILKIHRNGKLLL
T1 sequence (O15550 919-1401): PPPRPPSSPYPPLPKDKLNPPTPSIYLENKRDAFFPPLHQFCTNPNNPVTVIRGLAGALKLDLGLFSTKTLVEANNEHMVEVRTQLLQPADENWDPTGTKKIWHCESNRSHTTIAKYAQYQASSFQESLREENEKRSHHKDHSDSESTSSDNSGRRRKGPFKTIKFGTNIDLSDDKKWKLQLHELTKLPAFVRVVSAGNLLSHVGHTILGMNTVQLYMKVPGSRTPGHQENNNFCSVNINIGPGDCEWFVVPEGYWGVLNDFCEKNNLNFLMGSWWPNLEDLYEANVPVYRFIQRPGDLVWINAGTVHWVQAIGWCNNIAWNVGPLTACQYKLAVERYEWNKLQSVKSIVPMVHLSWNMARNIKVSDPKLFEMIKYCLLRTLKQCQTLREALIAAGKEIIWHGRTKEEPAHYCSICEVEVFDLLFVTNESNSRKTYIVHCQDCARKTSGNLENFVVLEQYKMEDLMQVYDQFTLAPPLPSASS

As to `O=C(O)c1ccnc(CNCc2cccnc2)c1` [Compound 84, 2-{[(pyridin-3-ylmethyl)amino]methyl}pyridine-4-carboxylic acid], the IC50 on PHF8 (KDM7) was under 250 nM; at KDM6A (UTX), over 2500 nM; on KDM5B (PLU-1) it was under 250 nM.

Regarding `CCNC(=O)C[C@@H]1CCN(Cc2cc(C(=O)O)ccn2)C1` [Compound 77, 2-{[(3S)-3-[(ethylcarbamoyl)methyl]pyrrolidin-1-yl]methyl}pyridine-4-carboxylic acid], the IC50 is 250 to 2500 nM on PHF8 (KDM7), over 2500 nM on KDM6A (UTX) and 250 to 2500 nM on KDM5B (PLU-1).

Regarding `O=C(O)c1ccnc(CN2CC[C@H]2CO)c1` [Compound 64, 2-{[(2S)-2-(hydroxymethyl)azetidin-1-yl]methyl}pyridine-4-carboxylic acid], the half-inhibitory concentration (IC50) at PHF8 (KDM7) is over 2500 nM; at KDM6A (UTX) it was over 2500 nM; at KDM5B (PLU-1), 250 to 2500 nM.

Take `CC(C)C[C@@H](COCc1ccccc1)NCc1cc(C(=O)O)ncn1` [Compound 89, 6-({[(2S)-1-(benzyloxy)-4-methylpentan-2-yl]amino}methyl) pyrimidine-4-carboxylic acid]: the IC50 is 250 to 2500 nM at PHF8 (KDM7) and over 2500 nM at KDM6A (UTX).

Take `C=CCN(CC=C)C(=O)[C@H](CCCCNC(=O)NC(C)(C)C)NCc1cc(C(=O)O)ccn1` [Compound 9, 2-({[(1S)-1-[bis(prop-2-en-1-yl)carbamoyl]-5-[(tert-butylcarbamoyl)amino]pentyl]amino}methyl) pyridine-4-carboxylic acid]: the IC50 on PHF8 (KDM7) is over 2500 nM; at KDM6A (UTX) it was over 2500 nM; at KDM5B (PLU-1), 250 to 2500 nM.

In the case of `O=C(O)c1ccnc(CN2CCC[C@@H]2CO)c1` [Compound 57, 2-{[(2R)-2-(hydroxymethyl)pyrrolidin-1-yl]methyl}pyridine-4-carboxylic acid], the IC50 at PHF8 (KDM7) and on KDM5B (PLU-1) was under 250 nM in each case.

As for `O=C(O)c1ccnc(CN2CCC[C@@H]2C(=O)N2CCCCC2)c1` [Compound 56, 2-{[(2R)-2-(piperidine-1-carbonyl)pyrrolidin-1-yl]methyl}pyridine-4-carboxylic acid], the results for the concentration for half-maximal inhibition (IC50) at PHF8 (KDM7) and on KDM5B (PLU-1) were 250 to 2500 nM and over 2500 nM, respectively.

Consider `CC(c1cc(C(=O)O)ccn1)N(C)CC(=O)N1CCCCC1` (stereo not drawn) [Compound 47, 2-(1-{methyl[2-oxo-2-(piperidin-1-yl)ethyl]amino}ethyl) pyridine-4-carboxylic acid], for which the IC50 at KDM5B (PLU-1) was over 2500 nM; on KDM2B (FBXL10), 250 to 2500 nM.

With `O=C(O)c1ccnc(CNCc2cn(Cc3ccc(F)cc3)c3ncccc23)c1` [Compound 83, 2-[({[1-(4-fluorobenzyl)-1H-pyrrolo[2,3-b]pyridin-3-yl]methyl}amino)methyl]pyridine-4-carboxylic acid], the results for the IC50 at PHF8 (KDM7), on KDM6A (UTX) and at KDM5B (PLU-1) were under 250 nM, over 2500 nM and 250 to 2500 nM, respectively.

In the case of `CN(C)CC1CCN(Cc2cc(C(=O)O)ccn2)Cc2nccn21` (stereo not drawn) [Compound 54, 2-({5-[(dimethylamino)methyl]-5H,6H,7H,8H,9H-imidazo[1,2-a][1,4]diazepin-8-yl}methyl)pyridine-4-carboxylic acid], the figures for the IC50 on KDM5B (PLU-1) and on KDM2B (FBXL10) were 250 to 2500 nM and over 2500 nM, respectively.

`CC(N[C@H](C)c1nccs1)c1cc(C(=O)O)ccn1` (stereo partly drawn) [Compound 30, 2-(1-{[(1R)-1-(1,3-thiazol-2-yl)ethyl]amino}ethyl) pyridine-4-carboxylic acid]: the IC50 is 250 to 2500 nM at PHF8 (KDM7), over 2500 nM on KDM6A (UTX) and over 2500 nM at KDM5B (PLU-1).

Turning to `CCNC(=O)C1CCN(Cc2cc(C(=O)O)ccn2)C1` (stereo not drawn) [Compound 76, 2-{[3-(ethylcarbamoyl)pyrrolidin-1-yl]methyl}pyridine-4-carboxylic acid], the half-inhibitory concentration (IC50) is 250 to 2500 nM at PHF8 (KDM7), over 2500 nM at KDM6A (UTX) and 250 to 2500 nM on KDM5B (PLU-1).

With `CCNC(=O)C1CCCN(Cc2cc(C(=O)O)ccn2)C1` (stereo not drawn) [Compound 74, 2-{[3-(ethylcarbamoyl)piper-idin-1-yl]methyl}pyridine-4-carboxylic acid], the results for the IC50 on PHF8 (KDM7), at KDM6A (UTX) and at KDM5B (PLU-1) were over 2500 nM, over 2500 nM and 250 to 2500 nM, respectively.

In the case of `C=CCN(CC=C)C(=O)[C@H](CCCCN(C)C(=O)NC)NCc1cc(C(=O)O)ccn1` [Compound 20, 2-({[(1S)-1-[bis(prop-2-en-1-yl)carbamoyl]-5-[methyl(methylcarba-moyl)amino]pentyl]amino}methyl)pyridine-4-carboxylic acid], the results for the IC50 at PHF8 (KDM7), at KDM6A (UTX) and on KDM5B (PLU-1) were over 2500 nM, over 2500 nM and 250 to 2500 nM, respectively.

Turning to `O=C(O)c1ccnc(CN2CCC[C@H]2C(=O)N2CCCCC2)c1` [Compound 55, 2-{[(2S)-2-(piperidine-1-carbonyl)pyrrolidin-1-yl]methyl}pyridine-4-carboxylic acid], the IC50 on PHF8 (KDM7) and on KDM5B (PLU-1) was over 2500 nM in each case.

`CC(N[C@@H](C)C(=O)NCc1ccccc1[N+](=O)[O-])c1cc(C(=O)O)ccn1` (stereo partly drawn) [Compound 8, 2-(1-{[(1S)-1-{[(2-nitrophenyl)methyl]carbamoyl}ethyl]amino}ethyl)pyridine-4-carboxylic acid]: the IC50 on PHF8 (KDM7), on KDM6A (UTX) and on KDM5B (PLU-1) was over 2500 nM throughout.

For the molecule `CC[C@H]1CCN(Cc2cc(C(=O)O)ccn2)[C@@H]1CO` [Compound 65, 2-{[(2S,3S)-3-ethyl-2-(hydroxymethyl)pyrrolidin-1-yl]methyl}pyridine-4-carboxylic acid], the IC50 at PHF8 (KDM7), on KDM6A (UTX) and on KDM5B (PLU-1) was over 2500 nM each time.

In the case of `C=CCN(CC=C)C(=O)[C@H](CCS(C)(=O)=O)NCc1cc(C(=O)O)ccn1` [Compound 29, 2-({[(1S)-1-[bis(prop-2-en-1-yl)carbamoyl]-3-methanesulfonylpropyl]amino}methyl)pyridine-4-carboxylic acid], the IC50 on PHF8 (KDM7) and at KDM5B (PLU-1) was over 2500 nM each time.

With `O=C(O)c1ccnc(CN2CCC[C@H]2CO)c1` [Compound 58, 2-{[(2S)-2-(hydroxymethyl)pyrrolidin-1-yl]methyl}pyridine-4-carboxylic acid], the concentration for half-maximal inhibition (IC50) was 250 to 2500 nM on PHF8 (KDM7) and under 250 nM on KDM5B (PLU-1).

For the molecule `C=CCN(CC=C)C(=O)[C@@H](CCCCNCCC)NCc1cc(C(=O)O)ccn1` [Compound 3, 2-({[(1R)-1-[bis(prop-2-en-1-yl)carbamoyl]-5-(propylamino)pentyl]amino}methyl)pyridine-4-carboxylic acid], the figures for the IC50 on PHF8 (KDM7) and at KDM5B (PLU-1) were 250 to 2500 nM and over 2500 nM, respectively.
